Assay results reported in patent US6162799A, “Pesticidal compounds” (BTG International Limited, priority 1995, dated 2000).
Values after ≈ are worked out from the molar mass of the structure shown. Where two headings read alike, the source gives them in different places.

Tests used:
Type in all cases: in vivo
[1] = system: Bemisia tabaci; assay: Film/vial test on whitefly (BT), susceptible strain SUD-S; conditions: 48 h
Experimental: (§1) Pesticidal activity was assessed against houseflies, mustard beetles, mites and whitefly using the following methods.
Whitefly (BT) (Bemisia tabaci)
Acetone solutions (0.100 ml) of the test compounds were placed in 10 ml glass vials and evaporated with rotation to deposit a film of the compound. Thirty adult whiteflies were placed inside the vial, then after 60 minutes, the treated insects were transferred onto untreated cotton leaf discs which were kept moist on a bed of agar gel. The temperature was maintained at 25° C. and mortality assessed after 48 hours. Three replicates were used at each of 5 to 7 dose levels per compound. LC50 values were calculated by using a computer software package ("Polo-PC" available from LeOra Software, Berkeley, Calif.). (See M. R. Cahill and B. Hackett in Proceedings Brighton Crop Protection Conference, 1992). The test was carried out using a susceptible strain of whitefly (SUD-S) which was collected in Sudan in 1978 from cotton.
(§2) The values given are LD50 (μg/insect) or LC50 (ppm solution of test compound) unless otherwise specified.

[2] = system: Tetranychus urticae; assay: Immersion test on mites (TU), susceptible strain GSS; conditions: 72 h
Experimental: as §1
Mites (TU) (Tetranychus urticae)
25 adult female mites were immersed in 35 μl of a solution of the test compound in a 1:4 acetone-water mixture for 30 seconds. The treated insects were maintained at 21°±2° C. and kill was assessed 72 hours after treatment. […] Three replicates of 25 mites each were used at each dose rate and 5 or 6 dose rates were used per compound under test. LC50 values were calculated in ppm of the solution of the test compound per insect. The test was carried out using a susceptible strain of mites (GSS) supplied by Schering, AG, Berlin.
as §2

[3] = system: Phaedon cochleariae Fab; assay: Topical test on mustard beetles (PC); conditions: for PC LD50 (comparative examples): Table 7; for PC (LD50): mustard beetles, topical, 48 h
Experimental: as §1
Mustard beetles (PC) (Phaedon cochleariae Fab)
A one microliter drop of an acetone solution of the test compound was applied ventrally to adult mustard beetles using a micro drop applicator. The treated insects were maintained for 48 hours after which time kill was assessed. Two replicates each of 20 to 25 mustard beetles were used at each dose level and 5 dose levels were treated comparably. LD50 values were calculated as for houseflies.
as §2

[4] = system: Musca domestica; assay: Topical test on houseflies (MD); conditions: for MD (LD50): houseflies, topical on thorax, kill assessed 24 and 48 h
Experimental: as §1
Houseflies (MD) (Musca domestica)
Female flies were treated on the thorax with a one microliter drop of test compound dissolved in acetone. Two replicates of 15 flies were used at each dose rate and 6 dose rates were used per compound under test. After treatment, the flies were maintained at a temperature of 20°±1° C. and kill was assessed 24 and 48 hours after treatment. LD50 values were calculated in micrograms of test compound per fly (see Sawicki et al., Bulletin of the World Health Organisation, 35, 893 (1966) and Sawicki et al., Entomologia and Exp. Appli 10, 253, (1967).
as §2

[5] = system: Aphis gossypiae; assay: Aphicidal activity, aphid-dip; conditions: strain 81-171B, read-out: Aphid-dip result, % kill A.G. 81-171B
Experimental: (§3) Activity against resistant (R) and susceptible (S) strains of aphid (Myzus persicae) and Aphis gossypiae was assessed using the following two methods.
(§4) Entrapment rings of fluon were painted halfway up the inside of 4 cm lengths of glass tubing (1.5 cm diameter), and squares of insect-proof gauze were attached to one end of each tube by elastic bands. Fifteen apterous adults were then gently transferred into the tubes using a sable-hair brush, and the tube sealed with a second gauze square.
(§5) Tubes containing aphids were dipped into insecticide solutions for 10 seconds, dried on blotting paper, and then inverted and tapped to cause treated aphids to fall to the unimmersed end of each tube. Handling mortality (usually zero or very slight) was scored after 1 hour, when aphids were transferred onto chinese cabbage leaf-discs (35 mm diameter) on an agar bed (25 mm in depth) in disposible plastic containers (30 mm high) and confined by applying a ring of fluon to the exposed lip of the container. Containers were stored upright, without lids, in a constant environment facility maintained at 25° C. under continuous room lighting. Mortality was assessed at 24, 48 and 72 hours. Two replicates of 15 aphids each were used at each dose rate and 5 or 6 dose rates were used per compound under test.
(§6) The values given are % mortality corrected for control data. The control comprised the test solution without active ingredient.

[6] = system: Myzus persicae; assay: Aphicidal activity, aphid-dip
Experimental: as §3, §4, §5
(§7) The test was carried out using a susceptible strain of aphids (US1L) collected in the field in East Anglia, UK and an extremely resistant strain of aphids (794Jz) (R^3 esterase, sensitive ACHE) collected from glasshouses in the UK.
as §6

[7] = system: Myzus persicae; assay: Aphicidal activity, topical application; conditions: 72 h; for mortality at 100 ppm: susceptible strain USIL, read-out: Topical aphid results, % kill M.P. USIL
Experimental: as §3
Batches of 10-15 apterous adults were removed from stock cultures and placed on leaf discs (35 mm in diameter) cut from chinese cabbage and held on an agar bed (25 mm deep) in disposable plastic containers (30 mm high). Using a Burkhard micro-applicator aphids were dosed individually with a 0.25 μm droplet of chemical diluted to the required concentration in acetone. control insects were dosed with acetone only. Mortality and other effects were scored at 24 hour intervals up to and including 72 hour post-treatment, the end-point to which the results relate.
as §7, §6

[8] = read-out: BT LC50 (comparative examples)
[9] = read-out: TU LC50 (comparative examples)
[10] = susceptible strain USIL, read-out: Aphid-dip result, % kill M.P. USIL
[11] = resistant strain 794JZ, read-out: Aphid-dip result, % kill M.P. 794JZ

CCCC1=C(O)C(=O)c2ccccc2C1=O [--(CH2)2 CH3, reference compound]
LC50 [1, 8]: 80 µg/mL (≈ 370 µM)

CCCCCCC1=C(O)C(=O)c2ccccc2C1=O [--(CH2)5 CH3, reference compound]
LC50 [2, 9]: 170 µg/mL (≈ 658 µM)
LC50 [1, 8]: 9.4 µg/mL (≈ 36.4 µM)

CCCCCCCCC1=C(O)C(=O)c2ccccc2C1=O [--(CH2)7 CH3, reference compound]
PC LD50 (comparative examples) [3]: 0.78 μg/insect
MD LD50 (comparative examples) ([4]; Table 7): 1.9 μg/insect

CCCCCCCCCCC1=C(O)C(=O)c2ccccc2C1=O [--(CH2)9 CH3, reference compound]
PC LD50 (comparative examples) [3]: 1.9 μg/insect

CCCCCCCCCCCCC1=C(O)C(=O)c2ccccc2C1=O [--(CH2)11 CH3, reference compound]
LC50 [2, 9]: < 60 µg/mL
LC50 [1, 8]: > 100 µg/mL

C[Si](C)(C)CCC1=C(OC(=O)c2ccccc2)C(=O)c2ccccc2C1=O [Example 1, 2-benzoyloxy-3-(2'-trimethylsilylethyl)-1,4-naphthoquinone]
LC50 ([2]; read-out: TU (GSS) (LC50)): 110 µg/mL (≈ 291 µM)
PC (LD50) [3]: > 20 μg/insect
MD (LD50) [4]: > 20 μg/insect

C[Si](C)(C)CCCCCC1=C(O)C(=O)c2ccccc2C1=O [Example 3, 2-hydroxy-3(5'-trimethylsilylpentyl)-1,4-naphthoquinone]
LC50 ([2]; read-out: TU (GSS) (LC50)): 2.8 µg/mL (≈ 8.85 µM)
mortality at 100 ppm [5]: 100%
mortality at 100 ppm [6, 10]: 100%
LC50 ([1]; read-out: BT (SUD-S) (LC50)): 6.8 µg/mL (≈ 21.5 µM)
mortality at 100 ppm [7]: 100%
MD (LD50) [4]: 1.3 μg/insect

CC(=O)OC1=C(CC[Si](C)(C)C)C(=O)c2ccccc2C1=O [Example 4, 2-ethanoyloxy-3-(2'-trimethylsilylethyl)-1,4-naphthoquinone]
LC50 ([2]; read-out: TU (GSS) (LC50)): 45 µg/mL (≈ 142 µM)
mortality at 100 ppm [6, 11]: 19%
mortality at 100 ppm [6, 10]: 19%
LC50 ([1]; read-out: BT (SUD-S) (LC50)): 2.9 µg/mL (≈ 9.16 µM)

COC1(OC)C(O)=C(CC[Si](C)(C)C)C(=O)c2ccccc21 [Example 5, 2-hydroxy-3-(2'-trimethylsilylethyl)-1,4-naphthoquinone, 1-dimethyl acetal]
LC50 ([2]; read-out: TU (GSS) (LC50)): 41 µg/mL (≈ 128 µM)
PC (LD50) [3]: ~20 μg/insect
MD (LD50) [4]: > 20 μg/insect

C[Si](C)(C)CC1=C(O)C(=O)c2ccccc2C1=O [Example 6]
LC50 ([1]; read-out: BT (SUD-S) (LC50)): 1.7 µg/mL (≈ 6.53 µM)

C[Si](C)(C)CCCC1=C(O)C(=O)c2ccccc2C1=O [Example 7]
LC50 ([2]; read-out: TU (GSS) (LC50)): 6.4 µg/mL (≈ 22.2 µM)
mortality at 100 ppm [5]: 57%
mortality at 100 ppm [6, 10]: 90%
mortality at 100 ppm [7]: 45%
MD (LD50) [4]: 4.4 μg/insect

C[Si](C)(C)CCCCC1=C(O)C(=O)c2ccccc2C1=O [Example 8]
LC50 ([2]; read-out: TU (GSS) (LC50)): 9.2 µg/mL (≈ 30.4 µM)
mortality at 100 ppm [6, 11]: 100%
mortality at 100 ppm [6, 10]: 90%
mortality at 1000 ppm ([7]; resistant strain 794JZ, 1000 ppm, read-out: Topical aphid results, % kill M.P. 794JZ): 100%
mortality at 100 ppm [7]: 90%
MD (LD50) [4]: 1.8 μg/insect

C[Si](C)(C)CCCCCCC1=C(O)C(=O)c2ccccc2C1=O [Example 9, 2-Hydroxy-3(6'-trimethylsilylhexyl)-1,4-naphthoquinone]
LC50 ([2]; read-out: TU (GSS) (LC50)): 4.5 µg/mL (≈ 13.6 µM)
mortality at 100 ppm [5]: 71%
mortality at 100 ppm [6, 10]: 100%
mortality at 100 ppm [7]: 100%
MD (LD50) [4]: 1.8 μg/insect
